Measurements taken from patent US10786508B2, “Substituted imidazo[1,5-A]-pyrimidines and their use in the treatment of medical disorders” (Lysosomal Therapeutics Inc., priority 2014, dated 2020).
Values after ≈ are worked out from the molar mass of the structure shown.

Tests used:
[1] = Compound solubility in water; assay type: physicochemical
[2] = target: T1, glucocerebrosidase (Gcase) (Homo sapiens, UniProt P04062); test: Glucocerebrosidase (Gcase) activation assay, 4-methylumbelliferyl-beta-D-glucopyranoside substrate, with saposin C; assay type: biochemical; details: 10 nM GCase, 100 nM saposin C, pH 4.7; for activation at 0.1 µM: 0.1 μM test compound, read-out: Percent Gease Activation 0.1 μM Test Compound; for activation at 1 µM: 1 μM test compound, read-out: Percent Gease Activation 1 μM Test Compound
T1 construct: micellar solution containing 10 nM GCase and 100 nM saposin C
T1 sequence (P04062 40-536): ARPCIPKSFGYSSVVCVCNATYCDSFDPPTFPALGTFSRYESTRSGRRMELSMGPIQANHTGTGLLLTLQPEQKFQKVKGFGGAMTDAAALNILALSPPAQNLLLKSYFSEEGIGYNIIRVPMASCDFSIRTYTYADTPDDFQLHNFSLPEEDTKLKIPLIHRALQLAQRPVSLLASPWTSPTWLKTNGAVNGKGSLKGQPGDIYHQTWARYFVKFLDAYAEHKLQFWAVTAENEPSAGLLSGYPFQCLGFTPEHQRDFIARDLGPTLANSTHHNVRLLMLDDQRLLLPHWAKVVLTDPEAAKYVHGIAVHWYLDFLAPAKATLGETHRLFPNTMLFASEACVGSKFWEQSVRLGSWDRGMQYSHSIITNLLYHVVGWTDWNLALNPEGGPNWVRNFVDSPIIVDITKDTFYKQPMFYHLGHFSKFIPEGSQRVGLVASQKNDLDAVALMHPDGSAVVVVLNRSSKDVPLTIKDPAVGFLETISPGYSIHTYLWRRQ
Description: The ability of exemplary compounds to activate glucocerebrosidase (Gcase) was measured.
A 484 μL aliquot of a 1.0 mg/mL solution of phosphatidylserine (PS) (Sigma P7769) in chloroform was evaporated under a stream of nitrogen for 1 hour. The lipid film was dissolved over 4 minutes of vigorous vortexing in 40 mL of 176 mM K2HPO4/50 mM citric acid (pH 4.7) containing 7.5 μL of triton X-100, resulting in a mixed micellar preparation with a composition of 0.32 mM triton and 0.37 mol % PS. 4-Methylumbelliferyl-beta-D-glucopyranoside (ACROS-337025000) was dissolved in the micellar solution to a final concentration of 2 mM for use as the reaction substrate.
Test compounds were diluted to the desired concentrations with dimethylsulfoxide (DMSO) from 10 mM stocks, and 0.41 μL of the DMSO compound mixture was added to 100 μL of micellar solution containing 10 nM GCase and 100 nM saposin C (Enzo ALX-201-262-C050). Pre-incubation was allowed to occur for 30 minutes at room temperature, after which the reaction was initiated by combining 25 μL of substrate solution with 25 μL of compound/GCase/saposin mixture. The reaction proceeded for 15 minutes at room temperature and was stopped by adding 150 μL of 1M glycine, pH 12.5. The endpoint of the reaction was monitored by measuring fluorescence intensity (excitation: 365 nm; emission: 440 nm) on a SpectraMax i3 instrument (Molecular Devices). Test compounds were screened at 1.0 and 0.1 μM final concentration, and subsequent 8-point dose response curves were obtained using 3-fold dilutions from a maximum final concentration of 5 μM.
For experiments in which the test compound was used at a concentration of 1.0 μM, the symbol “+” indicates less than 30% Gcase activation; the symbol “++” indicates Gcase activation in the range of 30% up to 60%; and the symbol “+++” indicates Gcase activation greater than 60%. For experiments in which the test compound was used at a concentration of 0.1 μM, the symbol “*” indicates less than 10% Gcase activation; the symbol “**” indicates Gcase activation in the range of 10% up to 20%; and the symbol “***” indicates greater than 20% Gcase activation.

Compound	solubility [1] [µg/mL]	activation at 0.1 µM [2] [%]	activation at 1 µM [2] [%]	Compound Solubility in Water [1] [µg/mL]
Cc1cc(C)n2cnc(C(=O)Nc3ccc(Cl)c(-c4cnco4)c3)c2n1 [III-27]	0.2 (≈ 0.544 µM)	< 10	30 to 60	–
C#Cc1ccc(C(C)(C)NC(=O)c2ncn3c(C)cc(C(F)(F)F)nc23)cc1 [III-39]	–	< 10	< 30	–
CCCCO[C@@H]1[C@@H]2CC[C@H]1C[C@@H](NC(=O)c1ncn3c(C)cc(C)nc13)C2 [III-86]	14.6 (≈ 39.4 µM)	10 to 20	> 60	–
Cc1cc(C)n2cnc(C(=O)NC(C)(C)c3cccc(Cl)c3)c2n1 [III-82]	14.8 (≈ 43.2 µM)	< 10	> 60	–
COCc1cc(C(C)C)n2cnc(C(=O)NC(C)(C)c3cccc(OC4CC4)c3)c2n1 [III-57]	38.5 (≈ 91.1 µM)	10 to 20	> 60	–
Cc1cc(C)n2cnc(C(=O)Nc3ccc4oncc4c3)c2n1 [III-18]	2.3 (≈ 7.48 µM)	< 10	< 30	–
C#Cc1ccc(C(C)(C)NC(=O)c2ncn3c(C)cc(C)nc23)cc1 [III-42]	18.7 (≈ 56.3 µM)	< 10	30 to 60	–
Cc1cc(C(C)C)n2cnc(C(=O)Nc3cccc4c3CCC4)c2n1 [III-45]	1 (≈ 2.99 µM)	> 20	> 60	–
Cc1cc(C(F)(F)F)nc2c(C(=O)NC3(C)CCCc4ccccc43)ncn12 (centres unmarked) [III-34]	24.9 (≈ 64.1 µM)	< 10	< 30	–
Cc1cc(C)n2cnc(C(=O)Nc3ccc(-c4cscn4)cc3)c2n1 [III-64]	0.6 (≈ 1.72 µM)	< 10	30 to 60	–
Cc1cc(C)n2cnc(C(=O)N[C@H](C)c3ccc(Cl)cc3)c2n1 [III-83]	16.5 (≈ 50.2 µM)	< 10	30 to 60	–
CCC(NC(=O)c1ncn2c(C)cc(C)nc12)c1cccc(Cl)c1 (centres unmarked) [III-81]	20.3 (≈ 59.2 µM)	10 to 20	> 60	–
Cc1cc(C)n2cnc(C(=O)NC3(C)CCCc4ccccc43)c2n1 (centres unmarked) [III-36]	11.9 (≈ 35.6 µM)	< 10	> 60	–
Cc1cc(C)n2cnc(C(=O)Nc3ccc4[nH]c(-c5ccco5)nc4c3)c2n1 [III-20]	0.3 (≈ 0.806 µM)	< 10	< 30	–
CO[C@H]1CC[C@@H](C(C)(C)NC(=O)c2ncn3c(C)cc(C)nc23)CC1 [III-63]	36.2 (≈ 105 µM)	< 10	30 to 60	–
COCc1cc(C(C)C)nc2c(C(=O)NC(C)(C)c3cccc(OC4CC4)c3)ncn12 [III-58]	28.9 (≈ 68.4 µM)	10 to 20	> 60	–
CCCOc1cccc(C(C)(C)NC(=O)c2ncn3c(COC)c(OC)c(C)nc23)c1 [III-53]	52.9 (≈ 124 µM)	< 10	30 to 60	–
CCCCCOc1ccc(NC(=O)c2ncn3c(C)cc(C)nc23)cc1 [III-28]	0.3 (≈ 0.851 µM)	> 20	> 60	–
Cc1cc(C)n2cnc(C(=O)NC3Cc4ccccc4C3)c2n1 [III-67]	18 (≈ 58.8 µM)	< 10	< 30	–

Compound	solubility [1] [µg/mL]	activation at 0.1 µM [2] [%]	activation at 1 µM [2] [%]	Compound Solubility in Water [1] [µg/mL]
Cc1cc(C)n2cnc(C(=O)Nc3ccc(-c4ccco4)cc3)c2n1 [III-30]	0.3 (≈ 0.903 µM)	> 20	> 60	–
Cc1cc(C)n2cnc(C(=O)Nc3ccc(C)c(-c4ncco4)c3)c2n1 [III-26]	0.5 (≈ 1.44 µM)	10 to 20	> 60	–
Cc1cc(C)n2cnc(C(=O)Nc3ccc4[nH]ncc4c3)c2n1 [III-8]	0.4 (≈ 1.31 µM)	< 10	< 30	–
CCCCCOC1CCC(NC(=O)c2ncn3c(C(C)C)cc(C)nc23)CC1 (centres unmarked) [III-44]	30.9 (≈ 79.9 µM)	< 10	30 to 60	–
Cc1cc(C)n2cnc(C(=O)Nc3ccc4c(c3)CCC4)c2n1 [III-22]	4.7 (≈ 15.3 µM)	10 to 20	> 60	–
CCCOc1cccc(C(C)(C)NC(=O)c2ncn3c(C4CC4)cc(COC)nc23)c1 [III-50]	31.3 (≈ 74.1 µM)	10 to 20	> 60	–
Cc1cc(C)n2cnc(C(=O)Nc3ccc(-c4ncco4)cc3)c2n1 [III-4]	7.9 (≈ 23.7 µM)	< 10	30 to 60	–
CCOCc1cccc(C(C)(C)NC(=O)c2ncn3c(COC)cc(C4CC4)nc23)c1 [III-59]	26.3 (≈ 62.2 µM)	< 10	30 to 60	–
COCc1cc(C2CC2)n2cnc(C(=O)NC(C)(C)c3cccc(OC4CC4)c3)c2n1 [III-55]	26.3 (≈ 62.5 µM)	10 to 20	> 60	–
Cc1cc(C(C)C)n2cnc(C(=O)N[C@H]3CCCc4ccccc43)c2n1 [III-35]	21.6 (≈ 62 µM)	< 10	< 30	–
Cc1cc(C)n2cnc(C(=O)Nc3ncc(C)[nH]3)c2n1 [III-6]	> 54	< 10	< 30	–
CCOCc1cccc(C(C)(C)NC(=O)c2ncn3c(C4CC4)cc(COC)nc23)c1 [III-73]	31.6 (≈ 74.8 µM)	< 10	< 30	–
COCc1cc(C2CC2)n2cnc(C(=O)NC3(C)CCOc4c(F)ccc(F)c43)c2n1 (centres unmarked) [III-72]	23.6 (≈ 55.1 µM)	< 10	30 to 60	–
Cc1cc(C)n2cnc(C(=O)Nc3ccc(-c4cccs4)nc3)c2n1 [III-29]	0.4 (≈ 1.14 µM)	10 to 20	> 60	–
Cc1cc(C)n2cnc(C(=O)Nc3ccc4nccc(O)c4c3)c2n1 [III-25]	–	< 10	< 30	3.8
COCc1cc(C2CC2)nc2c(C(=O)NC3(C)CCOc4c(F)ccc(F)c43)ncn12 (centres unmarked) [III-33]	–	10 to 20	> 60	–
C#Cc1ccc(NC(=O)c2ncn3c(C)cc(C)nc23)cc1F [III-49]	–	10 to 20	> 60	–
C#Cc1ccc(NC(=O)c2ncn3c(C)cc(C)nc23)c(F)c1 [III-48]	–	10 to 20	> 60	–
